Experimental data as given in patent US7030142B1, “Methods for the treatment of neuroleptic and related disorders using ziprasidone metabolites” (Sepracor Inc., priority 1999, dated 2006).
pKd: −log10 of the molar value. Counter-ions that a name gives are not always drawn.

Key:
[1] = ziprasidone administered orally; cited from earlier work
D2 dopamine receptors = D2 dopamine receptors (Homo sapiens, UniProt P14416); assay: Competition radioreceptor assay, D2 dopamine receptors; settings: 90 minute incubation; (+)-butaclamol (0.25 μM) defining nonspecific binding; read-out: KD of radioligand
Procedure: Competition radioreceptor assays are used to determine the affinity (IC50's) of the phenylaminotetralins and other reference ligands for D2 dopamine receptors. […] Jarvie, J. R. et al., Eur. J. Pharmacol., 144:163–171 (1987) and Kula, N. S. et al., Dev. Brain Res., 66:286–287 (1992). […] Test agents are evaluated by running, in duplicate, six or more concentrations that bracketed the IC50. Three replications are performed, and the resulting data are analyzed using the ALLFIT program.

5-HT2 receptor = settings: Seeger et al. 1995; cited from earlier work
dopamine D2 receptor = dopamine D2 receptor (Homo sapiens, UniProt P14416); settings: Seeger et al. 1995; cited from earlier work
5-HT1A = target: T1, 5-HT1A (Homo sapiens, UniProt P08908); settings: Seeger et al. 1995; cited from earlier work
T1 sequence (P08908 1-422): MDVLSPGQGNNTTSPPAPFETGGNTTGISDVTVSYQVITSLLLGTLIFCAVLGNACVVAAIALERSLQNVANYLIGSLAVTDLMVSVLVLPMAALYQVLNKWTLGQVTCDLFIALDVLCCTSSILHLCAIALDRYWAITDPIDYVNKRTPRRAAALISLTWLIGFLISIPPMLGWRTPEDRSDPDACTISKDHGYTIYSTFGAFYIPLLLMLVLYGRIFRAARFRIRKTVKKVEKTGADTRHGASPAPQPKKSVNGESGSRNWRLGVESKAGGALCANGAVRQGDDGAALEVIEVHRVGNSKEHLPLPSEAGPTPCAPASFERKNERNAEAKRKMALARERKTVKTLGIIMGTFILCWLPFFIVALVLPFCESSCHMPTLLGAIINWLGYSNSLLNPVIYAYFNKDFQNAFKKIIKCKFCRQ

5-HT1D = 5-HT1D (Homo sapiens, UniProt P28221); settings: Seeger et al. 1995; cited from earlier work
5-HT2C = target: T2, 5-HT2C (Homo sapiens, UniProt P28335); settings: Seeger et al. 1995; cited from earlier work
T2 sequence (P28335 33-458): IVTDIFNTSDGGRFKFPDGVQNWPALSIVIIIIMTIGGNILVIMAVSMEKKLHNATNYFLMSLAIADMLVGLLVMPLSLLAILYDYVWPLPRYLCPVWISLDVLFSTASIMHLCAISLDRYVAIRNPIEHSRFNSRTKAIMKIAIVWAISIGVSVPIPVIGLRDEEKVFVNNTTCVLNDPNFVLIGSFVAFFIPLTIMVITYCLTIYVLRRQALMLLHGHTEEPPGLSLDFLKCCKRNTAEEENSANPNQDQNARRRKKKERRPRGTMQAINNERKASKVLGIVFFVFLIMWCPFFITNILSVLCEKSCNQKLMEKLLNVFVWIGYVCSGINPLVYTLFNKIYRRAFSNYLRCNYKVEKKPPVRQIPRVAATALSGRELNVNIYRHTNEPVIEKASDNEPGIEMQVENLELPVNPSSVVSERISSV

Sequence of 5-HT1D (P28221 whole entry, species assumed): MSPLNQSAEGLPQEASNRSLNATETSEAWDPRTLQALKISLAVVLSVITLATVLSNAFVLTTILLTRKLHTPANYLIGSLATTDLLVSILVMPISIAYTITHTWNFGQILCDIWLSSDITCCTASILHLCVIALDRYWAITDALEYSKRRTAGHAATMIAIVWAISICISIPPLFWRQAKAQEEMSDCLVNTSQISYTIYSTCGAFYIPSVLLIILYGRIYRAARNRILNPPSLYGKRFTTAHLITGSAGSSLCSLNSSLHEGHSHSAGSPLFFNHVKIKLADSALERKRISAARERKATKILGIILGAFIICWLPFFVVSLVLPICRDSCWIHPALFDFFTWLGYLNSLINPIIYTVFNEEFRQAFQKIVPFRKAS
Sequence of dopamine D2 receptor (P14416 whole entry, species assumed): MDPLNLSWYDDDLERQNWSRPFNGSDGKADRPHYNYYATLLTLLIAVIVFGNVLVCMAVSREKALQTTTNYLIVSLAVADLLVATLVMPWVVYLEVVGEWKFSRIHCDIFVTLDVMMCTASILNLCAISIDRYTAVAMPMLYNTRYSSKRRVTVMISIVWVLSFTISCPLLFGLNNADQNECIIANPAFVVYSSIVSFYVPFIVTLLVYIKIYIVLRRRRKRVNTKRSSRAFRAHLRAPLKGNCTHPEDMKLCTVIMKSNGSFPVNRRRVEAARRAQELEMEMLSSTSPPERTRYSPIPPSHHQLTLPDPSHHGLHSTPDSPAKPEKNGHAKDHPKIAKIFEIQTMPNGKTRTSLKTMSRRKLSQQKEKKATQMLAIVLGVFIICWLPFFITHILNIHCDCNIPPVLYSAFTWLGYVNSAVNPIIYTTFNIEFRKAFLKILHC
Sequence of D2 dopamine receptors (P14416 whole entry): as the sequence (P14416 whole entry, species assumed) above

## O=C1Cc2cc(CCN3CCN(C4=NS(=O)(=O)c5ccccc54)CC3)c(Cl)cc2N1 [ZIP-SO2, ziprasidone sulfone]
[1]
  share of ziprasidone metabolites found in human urine: less than 3%

## O=C1Cc2cc(CCN3CCN(c4n[s+]([O-])c5ccccc45)CC3)c(Cl)cc2N1 (centres unmarked) [ZIP-SO, ziprasidone sulfoxide]
[1]
  share of ziprasidone metabolites found in human urine: less than 10%

## CN1CCc2cc(Cl)c(O)cc2C(c2ccccc2)C1 (centres unmarked) [[^3H]SCH23390]
D2 dopamine receptors
  pKd: 9.47

## O=C1Cc2cc(CCN3CCN(c4nsc5ccccc45)CC3)c(Cl)cc2N1 [ziprasidone, (5-[2-{4-(1,2-benzisothiazol-3-yl)piperizin-1-yl}ethyl]-6-chlorooxindole)hydrochloride hydrate]
5-HT2 receptor
  5-HT2 receptor antagonist: highly potent and selective
Dopamine D2 receptor
  dopamine D2 receptor antagonist: highly potent and selective
5-HT1A
  affinity for 5-HT1A receptor subtype: high affinity
5-HT1D
  affinity for 5-HT1D receptor subtype: high affinity
5-HT2C
  affinity for 5-HT2C receptor subtype: high affinity
